Laboratory results taken from publication PMC12766730, “Controlled Self-Immolative Release of β‑Lapachone via an Optimized para-Hydroxybenzyl Linker for Targeted Pancreatic Cancer Therapy” (Journal of the American Chemical Society, 2025).
Where two headings read alike, the source gives them in different places.

How the values were obtained:
[1] = HPLC stability assay of prodrugs in buffers pH 3, 5, 7, 7.4 (PBS), 9 at 37 °C for 72 h without trigger; format: physicochemical; details: for stability of the prodrug without triggering enzyme: 37 °C, 72 h, pH 3–9; for premature lapachone release, percent of total prodrug: 72 h at 37 °C, no H2O2
Protocol: The diastereomeric mixture of each β-glucuronide–PHB-β-lapachone prodrug (16a–j) and PAB derivative 22 were then tested for stability in citrate-phosphate buffers across a range of pHs (3, 5, 7, 7.4 (PBS), 9) via an HPLC stability assay. For derivatives 16a, 16b, 16d, 16e, 16h, and 16j, when no β-glucuronidase enzyme was added, both diastereomers of 16 were fully stable at 37 °C for 72 h (Figures a,d, S63, S64, S66–68, S71, and S73). […] This premature release was greatest at acidic pH 3 for 16g, with very minimal lapachone release detected at pH 5–9 (Figure c). The released lapachone was quantified and compared to the starting concentration of each prodrug to calculate the percent of the prodrug that had been prematurely released (Figures f,g, S76). […] Therefore, a trade-off exists between ring activation, improving the release rate from 3 while also decreasing prodrug stability, and it rendered 16g clinically disadvantageous.  5 Stability of prodrugs is pH dependent. The representative HPLC traces for (a) a stable prodrug 16a and (b) an unstable prodrug 16g are shown after incubation at 37 °C in pH 7.4 PBS buffer. […] (c) The area of the lapachone peak for 16g normalized to the IS was plotted, displaying substantial growth over time at pH 3. […] For panels c–g, each value is plotted as the mean ± SD of three replicates. The HPLC traces (Figures S50–S62) and peak area graphs (Figures S63–S75) for all other derivatives can be found in the Supporting Information. The stability of 26 was also evaluated from pH 3–9 (Figures d,f–h S86–S87). […] This degradation was the largest at pH 9, with a measurable decrease in the prodrug peak area after 72 h (Figure g). The lapachone released after 72 h was quantified using a standard curve (Tables S6.1–S6.2). At pH 3 and 5, approximately 0.2% of the total prodrug lapachone had been released.

PANC-1 = test: PDAC cell viability after 72 h of treatment, PANC-1; format: cell-based
Protocol: (§1) All ortho-quinone prodrug derivatives were tested on two pancreatic cancer cell lines, PANC-1 and AsPC-1, to assess efficacy in cell killing (Figures , S88–89, S91, Tables , and S8.1). Exogenous β-glucuronidase was added to the cell media to mimic the extracellular enzyme present in the TME. […] Those derivatives with release rates slower than that of 16a, like 16e, had less efficacy in cells comparatively (Table ).
(§2) 7 PDAC cell viability with prodrug treatment. Representative PANC-1 (a) and AsPC-1 (b) cell viability data of four β-lapachone prodrug derivatives after 72 h of treatment with exogenous β-glucuronidase added. Panels (c, d) show the toxicity of functional prodrugs up to 100 μM in PANC-1 (c) and AsPC-1 (d) cells without exogenous β-glucuronidase enzyme present after 72 h incubation.
(§3) To assess the TW of the prodrug derivatives, we tested each of them in both the PANC-1 and AsPC-1 cell lines at up to 100 μM without the β-glucuronidase enzyme present. In agreement with the HPLC stability assay data, we saw no toxicity in all stable prodrug derivatives up to this concentration (Figure c,d). […] In comparison, all the stable glucuronide prodrug derivatives retained 100% viability at 100 μM. […] It is generally considered that a drug has a good therapeutic safety profile if the TI is greater than 10, which our best derivatives far exceed, signaling that our prodrug is safe to deliver systemically in future in vivo experiments and should not cause any adverse effects in areas where β-glucuronidase is not overexpressed. ,

AsPC-1 = test: PDAC cell viability after 72 h of treatment, AsPC-1; format: cell-based; details: for IC50: Homo sapiens
Protocol: as §1, §2, §3

[2] = Release of β-lapachone (1) from deprotected PHB/PAB linkers (3 or 25) in citrate-phosphate buffers pH 3–10, analytical HPLC; format: physicochemical; details: for release rate faster than unsubstituted parent: 3f vs 3a, 25 vs 4
Protocol: First, the purified mixture of two prodrug diastereomers (16a–j) for each PHB derivative was incubated with β-glucuronidase. This enabled full removal of the glucuronide moiety from both diastereomers of the prodrug within 2–15 min, leaving a mixture of two PHB-β-lapachone enantiomers (3a–j, Figure c). For PAB compound 22, penicillin G amidase was used in place of β-glucuronidase to give a mixture of two PAB-β-lapachone enantiomers (25). The 3 (or 25) solution was then spiked into citrate-phosphate buffers from pH 3–10, and release of 1 from 3 (or 25) was measured at various time points by analytical HPLC. A single peak for the two enantiomers of 3 was observed after glucuronide removal, and thus the measured k obs was for both enantiomers in the mixture.
3 Release rate comparison for PHB and PAB prodrugs. The mechanisms of release for the β-glucuronide–PHB prodrug derivatives (a) and the PAB derivative (b) are shown. β-glucuronidase or penicillin G amidase deprotects the PHB or PAB linkers, yielding 3 or 25, respectively. A 1,6-elimination then occurs, releasing the hydroquinone form of β-lapachone, which then oxidizes into the ortho-quinone. (c) The substituents on the PHB/PAB linker for each derivative are shown and classified into which strategy they employed, lowering phenolate pK a or stabilizing the elimination TS. BLap = β-lapachone in its α-hydroxy ketol form (refer to panel a). The predicted pK a values are also shown, calculated using MolGpKa. (d) The representative HPLC traces of a release experiment for 3g at pH 7 are shown (RT: retention time) normalized to the warfarin (WF) internal standard (IS, RT = 11.6 min). The peak for 3g (RT = 12.5 min) decreases while the peak for 1 (RT = 10.8 min) increases over time. The traces for all other derivatives at each pH are included in Figures S10–S20, S34–S45. (e) The calculated k obs values from these release kinetic experiments for each PHB derivative are plotted versus pH on a logarithmic scale. Derivatives 3a–e were designed to lower the PHB phenol pK a, while derivatives 3f–j were designed to stabilize the 1,6-elimination TS. (f) The first-order reaction rate constants of the PAB derivatives 4 (pink) and 25 (purple) are plotted together with 3a (black) and the best-performing PHB derivatives 3f (cyan) and 3i (dark green) for direct comparison. The derivations of the plotted first-order k obs values from linearized initial velocities measured in triplicate are shown in Figures S23–S33. […]
Over time, the intensity of the 3/25 peak decreased, while the intensity of the 1 peak increased (Figure d). A standard curve for β-lapachone (Figure S22) was prepared, enabling quantification of the released β-lapachone.

[3] = Homo sapiens, PANC-1, exogenous β-glucuronidase added, average ± SD of biological replicates, read-out: PANC-1 IC50
[4] = ASPC1, exogenous β-glucuronidase added, average ± SD of biological replicates, read-out: AsPC-1 IC50
[5] = Homo sapiens, PANC-1, exogenous β-glucuronidase added, representative experiment, read-out: IC50 on PANC-1, representative viability data (Figure 7a)
[6] = ASPC1, exogenous β-glucuronidase added, representative experiment, read-out: IC50 on AsPC-1, representative viability data (Figure 7b)
[7] = exogenous β-glucuronidase added, average ± SD of biological replicates

stability of the prodrug without triggering enzyme [1]	IC50 (PANC-1; [3]) [µM]	IC50 (AsPC-1; [4]) [µM]	SMILES	other results
trace β-lapachone release was detected	1.2 ± 0.3	1.6 ± 0.6	COc1cc(O[C@@H]2O[C@H](C(=O)O)[C@@H](O)[C@H](O)[C@H]2O)cc(OC)c1CC1(O)C(=O)C2=C(OC(C)(C)CC2)c2ccccc21 (mixture of isomers) [16g]	IC50 (PANC-1; Homo sapiens, PANC-1, no enzyme, value printed in the picture, read-out: IC50, prodrug toxicity without β-glucuronidase on PANC-1 (Figure 7c)): 20 µM; IC50 (PANC-1; Homo sapiens, PANC-1, no release-triggering enzyme, tested up to 100 μM, read-out: IC50 in PANC-1 without exogenous β-glucuronidase): 26 ± 6 µM; IC50 (AsPC-1; ASPC1, no enzyme, value printed in the picture, read-out: IC50, prodrug toxicity without β-glucuronidase on AsPC-1 (Figure 7d)): 68 µM; IC50 (AsPC-1; ASPC1, no release-triggering enzyme, tested up to 100 μM, read-out: IC50 in AsPC-1 without exogenous β-glucuronidase): 75 ± 7 µM
fully stable	–	–	CCCN(C)S(=O)(=O)c1cc(CC2(O)C(=O)C3=C(OC(C)(C)CC3)c3ccccc32)ccc1O[C@@H]1O[C@H](C(=O)O)[C@@H](O)[C@H](O)[C@H]1O (single isomer, unassigned) [16e]	–
–	–	–	COc1cc(O)ccc1CC1(O)C(=O)C2=C(OC(C)(C)CC2)c2ccccc21 (centres unmarked) [3f]	release rate faster than unsubstituted parent [2]: around 2 orders of magnitude
–	–	–	COc1cc(O)cc(OC)c1CC1(O)C(=O)C2=C(OC(C)(C)CC2)c2ccccc21 (centres unmarked) [3g]	acceleration of release rate at pH 5 ([2]; pH 5, compared with unsubstituted 3a): ~2200 fold; acceleration of release rate at pH 7.5 ([2]; pH 7.5, compared with unsubstituted 3a): ~800 fold
fully stable	9.6 ± 0.9	19 ± 3	CC1(C)CCC2=C(O1)c1ccccc1C(O)(Cc1ccc(O[C@@H]3O[C@H](C(=O)O)[C@@H](O)[C@H](O)[C@H]3O)cc1)C2=O (some centres unmarked) [16a]	IC50 (PANC-1; [5]): 11 µM; IC50 (AsPC-1; [6]): 16 µM
fully stable	11 ± 2	24	CC1(C)CCC2=C(O1)c1ccccc1C(O)(Cc1cc(F)c(O[C@@H]3O[C@H](C(=O)O)[C@@H](O)[C@H](O)[C@H]3O)c(F)c1)C2=O (some centres unmarked) [16b]	–
trace β-lapachone release was detected	–	–	CC1(C)CCC2=C(O1)c1ccccc1C(O)(Cc1c(F)c(F)c(O[C@@H]3O[C@H](C(=O)O)[C@@H](O)[C@H](O)[C@H]3O)c(F)c1F)C2=O (some centres unmarked) [16c]	PANC-1 IC50 (PANC-1; [7]): Inactive; AsPC-1 IC50 (AsPC-1; [7]): Inactive
fully stable	21 ± 3	–	CC1(C)CCC2=C(O1)c1ccccc1C(O)(Cc1c(F)cc(O[C@@H]3O[C@H](C(=O)O)[C@@H](O)[C@H](O)[C@H]3O)cc1F)C2=O (some centres unmarked) [16d]	–
fully stable	1.2 ± 0.4	3.2 ± 1.7	COc1cc(CC2(O)C(=O)C3=C(OC(C)(C)CC3)c3ccccc32)cc(OC)c1O[C@@H]1O[C@H](C(=O)O)[C@@H](O)[C@H](O)[C@H]1O (some centres unmarked) [16h]	–
trace β-lapachone release was detected	0.8 ± 0.5	0.9 ± 0.5	CC(c1ccc(O[C@@H]2O[C@H](C(=O)O)[C@@H](O)[C@H](O)[C@H]2O)cc1)C1(O)C(=O)C2=C(OC(C)(C)CC2)c2ccccc21 (some centres unmarked) [16i]	IC50 (PANC-1; [5]): 0.3 µM; IC50 (AsPC-1; [6]): 0.5 µM
fully stable	1.1 ± 0.4	2.8 ± 1	COCCOc1cc(O[C@@H]2O[C@H](C(=O)O)[C@@H](O)[C@H](O)[C@H]2O)ccc1CC1(O)C(=O)C2=C(OC(C)(C)CC2)c2ccccc21 (some centres unmarked) [16j]	–
–	1.8 ± 0.2	5.4 ± 0.7	CC1(C)CCC2=C(O1)c1ccccc1C(=O)C2=O [compound 1, β-lapachone, reference compound]	IC50 (AsPC-1; [6]): 4.7 µM
trace β-lapachone release was detected	–	–	COc1cc(NC(=O)Cc2ccccc2)ccc1CC1(O)C(=O)C2=C(OC(C)(C)CC2)c2ccccc21 (centres unmarked) [compound 22]	–
–	–	–	COc1cc(N)ccc1CC1(O)C(=O)C2=C(OC(C)(C)CC2)c2ccccc21 (centres unmarked) [compound 25]	release rate faster than unsubstituted parent [2]: around 2 orders of magnitude
–	–	–	CC1(C)CCC2=C(O1)c1ccccc1C(O)(Cc1ccc(B(O)O)cc1)C2=O (centres unmarked) [compound 26, reference compound]	premature lapachone release, percent of total prodrug ([1]; pH 3): approximately 0.2%; premature lapachone release, percent of total prodrug ([1]; pH 5): approximately 0.2%; premature lapachone release, percent of total prodrug ([1]; pH 7): ~0.6%; premature lapachone release, percent of total prodrug ([1]; pH 7.4): ~2.3%; premature lapachone release, percent of total prodrug ([1]; pH 9): ~10.9%
–	–	–	CC1(C)CCC2=C(O1)c1ccccc1C(O)(Cc1ccccc1)C2=O (centres unmarked) [compound 27, reference compound]	IC50 (PANC-1; exogenous β-glucuronidase added, average ± SD of biological replicates, read-out: PANC-1 IC50): 70 µM; IC50 (PANC-1; no release-triggering enzyme, tested up to 100 μM, read-out: IC50 in PANC-1 without exogenous β-glucuronidase): 70 µM
